Reference: PubChem BioAssay AID1033 (Sanford-Burnham Center for Chemical Genomics, 2008)
The source made the active and inactive calls. The rule behind the calls is not given here. Residues, ends and D or L forms follow the SMILES beside them.

Molecular target: Chaperone protein DnaK (Escherichia coli (strain K12)) (UniProt P0A6Y8)
Assay: E. coli DnaK SBD ligand binding – biophysical, NMR, chaperone (AID 1033)
Details: Purified DnaK SBD

Chaperone protein DnaK (Escherichia coli (strain K12)), sequence (P0A6Y8 whole entry, looked up): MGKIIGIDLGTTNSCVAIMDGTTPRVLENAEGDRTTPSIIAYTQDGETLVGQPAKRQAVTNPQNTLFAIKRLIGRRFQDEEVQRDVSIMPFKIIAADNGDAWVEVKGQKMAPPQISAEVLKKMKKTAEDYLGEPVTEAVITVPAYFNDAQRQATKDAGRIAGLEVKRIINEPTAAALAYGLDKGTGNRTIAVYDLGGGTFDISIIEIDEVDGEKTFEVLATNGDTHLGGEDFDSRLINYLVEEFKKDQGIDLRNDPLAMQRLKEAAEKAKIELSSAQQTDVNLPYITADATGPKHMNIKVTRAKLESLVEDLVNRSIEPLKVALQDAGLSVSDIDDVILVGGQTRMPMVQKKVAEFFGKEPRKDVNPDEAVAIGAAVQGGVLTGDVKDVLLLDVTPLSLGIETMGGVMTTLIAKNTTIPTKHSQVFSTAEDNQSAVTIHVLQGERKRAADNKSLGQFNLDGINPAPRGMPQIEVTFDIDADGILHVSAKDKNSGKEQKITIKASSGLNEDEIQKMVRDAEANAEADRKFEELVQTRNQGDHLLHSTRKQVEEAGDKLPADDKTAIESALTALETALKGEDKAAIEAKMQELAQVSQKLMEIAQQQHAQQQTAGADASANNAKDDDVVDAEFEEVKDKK

| SMILES | Kd |
| --- | --- |
| Cc1cc(C)cc(C(=O)n2cnnc2N)c1 | > 4 mM (inactive) |
| O=C(Nc1ccc(O)cc1)N1CCOCC1 | > 4 mM (inactive) |
| Nc1nc(-c2ccc(F)c(F)c2)cs1 | > 4 mM (inactive) |
| COCC(=O)NC1CC(C)(C)NC(C)(C)C1 | > 4 mM (inactive) |
| Cn1cccc1C(=S)N1CCOCC1 | > 4 mM (inactive) |
| Cc1c(C)[n+](=O)c(-c2cccs2)c(C)n1[O-] | > 4 mM (inactive) |
| O=S(=O)(CCN1CCCC1)c1ccccc1 | > 4 mM (inactive) |
| COCC(=O)Nc1nc2ccc(C)cc2s1 | > 4 mM (inactive) |
| O=C1C2C3C=CC(C3)C2C(=O)N1c1ccccn1 (centres undefined) | > 4 mM (inactive) |
| Cc1ccc2[nH]c3nc(=S)[nH]nc3c2c1 | > 4 mM (inactive) |
| CN1CCN(C(=O)C2CCCNC2)CC1 (centres undefined) | > 4 mM (inactive) |
| Cc1cc(N)n(-c2ccccc2)n1 | > 4 mM (inactive) |
| CC1O[C@@H](Oc2c(-c3ccc(O)c(O)c3)oc3cc(O)cc(O)c3c2=O)[C@H](O)[C@H](O)[C@H]1O (some centres undefined) | > 4 mM (inactive) |
| N=c1c2c3c(sc2ncn1N)CCCC3 | > 4 mM (inactive) |
| CCOC12NC(=O)CC(=O)N1C(c1ccccc1)=CS2 (centres undefined) | > 4 mM (inactive) |
| COc1ccc2c(CC(=O)O)coc2c1 | > 4 mM (inactive) |
| COC(=O)c1ccccc1C | > 4 mM (inactive) |
| NC(=O)c1ccc(-c2csnn2)cc1 | > 4 mM (inactive) |
| NC1=NC(=O)C(CC(=O)Nc2ccccc2F)S1 (centres undefined) | > 4 mM (inactive) |
| NCCC(=O)N[C@@H](Cc1cnc[nH]1)C(=O)O | > 4 mM (inactive) |
| CC(=O)NCc1nc2ccccc2[nH]1 | > 4 mM (inactive) |

| SMILES | Kd |
| --- | --- |
| OCc1ccccc1N1CCOCC1 | > 4 mM (inactive) |
| CC1(C)O[C@H]2CC(=O)OC[C@]23[C@H]2CC[C@@]4(C)[C@H](c5ccoc5)OC(=O)[C@H]5O[C@]54[C@]2(C)C(=O)C[C@@H]13 | > 4 mM (inactive) |
| Cc1c(/C=N\n2cnnc2)c2ccccc2n1C | > 4 mM (inactive) |
| Nc1nc2ccccc2n1CCN1CCCC1 | > 4 mM (inactive) |
| COc1ccc(/C=C2/NC(=S)NC2=O)cc1 | > 4 mM (inactive) |
| Cc1cccc(N2C(=O)CCC2=O)n1 | > 4 mM (inactive) |
| COc1cccc(Oc2ccc(N)cc2)c1 | > 4 mM (inactive) |
| COc1cc(C(C)=O)ccc1OC(=O)N1CCOCC1 | > 4 mM (inactive) |
| O=C(c1cccc(-n2cnnn2)c1)N1CCOCC1 | > 4 mM (inactive) |
| Nc1ccc2c(c1)C(=O)OC2 | > 4 mM (inactive) |
| CC(C)=CC1C(C(=O)O)C1(C)C (centres undefined) | > 4 mM (inactive) |
| O=C(O)c1cnc2n(c1=O)CCS2 | > 4 mM (inactive) |
| c1cnc(N2CCNCC2)nc1 | > 4 mM (inactive) |
| COc1ccc(C(=O)/C=C/c2ccccc2)cc1 | > 4 mM (inactive) |
| O=C(O)C1CC(=O)N(Cc2ccc(F)cc2)C1 (centres undefined) | > 4 mM (inactive) |
| CC(=O)N[C@@H](CC(=O)O)C(=O)N[C@@H](CCC(=O)O)C(=O)O (Ac-Asp-Glu-OH) | > 4 mM (inactive) |
| NC1=C([N+](=O)[O-])C(=O)c2ccccc21 | > 4 mM (inactive) |
| Cn1nnc2c(Cl)ncnc21 | > 4 mM (inactive) |
| CCCc1nc2ccccc2c2nc(N)nn12 | > 4 mM (inactive) |
| COc1cc2nc(N3CCNCC3)nc(N)c2cc1OC | > 4 mM (inactive) |
| O=C(O)C1CC2CC1CCC2O (centres undefined) | > 4 mM (inactive) |

| SMILES | Kd |
| --- | --- |
| CCn1nccc1C(=O)Nc1ccc(Cl)cc1Cl | > 4 mM (inactive) |
| Cn1nnc2cc(C(=O)NCc3ccco3)ccc21 | > 4 mM (inactive) |
| Cc1ccc(NC(=O)/C=C2\SC(=O)NC2=O)cc1 | > 4 mM (inactive) |
| COc1ccc(-c2nc3nc(C)cc(C)n3n2)cc1 | > 4 mM (inactive) |
| CCC(=O)OC1[C@@H]2CC3=C4CC(=O)O[C@@H](c5ccoc5)[C@]4(C)CCC3C(C)(C2=O)[C@@H](CC(=O)OC)C1(C)C (some centres undefined) | > 4 mM (inactive) |
| Cc1ccccc1NC(=O)C1CC(=O)N=C(N)S1 (centres undefined) | > 4 mM (inactive) |
| Cc1cc2c(N)cccc2nn1 | > 4 mM (inactive) |
| CCOC(=O)Cc1cc(=O)n2[nH]c(C)cc2n1 | > 4 mM (inactive) |
| COc1cc(OC)c(OC)cc1C=O | > 4 mM (inactive) |
| CS(=O)(=O)N1CCN(C(=O)c2ccccc2F)CC1 | > 4 mM (inactive) |
| Cc1cc(C)nc(/N=C(\N)N2CCc3ccccc32)n1 | > 4 mM (inactive) |
| O=C(Nc1ccc(N2CCOCC2)cc1)c1cnsn1 | > 4 mM (inactive) |
| S=c1[nH]c2cccnc2[nH]1 | > 4 mM (inactive) |
| O=C(/C=C/c1ccccc1)NC1CCS(=O)(=O)C1 (centres undefined) | > 4 mM (inactive) |
| NC(=O)C1CCN(C2CC(=O)NC2=O)CC1 (centres undefined) | > 4 mM (inactive) |
| Cc1ncc(C(=O)O)c(-c2ccccc2)n1 | > 4 mM (inactive) |
| Cc1ccc(C(=O)Nc2ccncc2)o1 | > 4 mM (inactive) |
| Cn1ccc(NC(=S)Nc2cccc([N+](=O)[O-])c2)n1 | > 4 mM (inactive) |
| COc1ccc2cc1Oc1ccc(cc1)C[C@H]1c3c(cc4c(c3Oc3cc5c(cc3OC)CCN(C)[C@@H]5C2)OCO4)CCN1C | > 4 mM (inactive) |
| O=C(O)c1ccc(-c2cccs2)s1 | > 4 mM (inactive) |
| CN1CCN(C(=S)c2ccc(N(C)C)cc2)CC1 | > 4 mM (inactive) |

| SMILES | Kd |
| --- | --- |
| Cn1nc(C(=O)Nc2cccnc2)c2ccccc2c1=O | > 4 mM (inactive) |
| O=C(NC(=O)N1CCOCC1)c1ccccc1 | > 4 mM (inactive) |
| C=CCSc1[nH]c(=O)cc(C)c1C(N)=O | > 4 mM (inactive) |
| COC(=O)c1c(C)cc(OC(=O)c2c(C)cc(O)c(C=O)c2O)c(C)c1O | > 4 mM (inactive) |
| c1cnc(N2CCSCC2)nc1 | > 4 mM (inactive) |
| OC[C@H]1O[C@@H](Oc2ccc(O)cc2)[C@H](O)[C@@H](O)[C@@H]1O | > 4 mM (inactive) |
| O=C1CSC(=S)N1N1C(=O)C2C3C=CC(C3)C2C1=O (centres undefined) | > 4 mM (inactive) |
| O=C(O)C1CCCN1Cc1c[nH]c2ccccc12 (centres undefined) | > 4 mM (inactive) |
| COc1cc([C@@H]2c3cc4c(c(O)c3C[C@H]3COC(=O)[C@@H]32)OCO4)cc(OC)c1OC | > 4 mM (inactive) |
| CC1CC[C@@]2(OC1)O[C@H]1CC3C4CC[C@@H]5C[C@@H](O)CC[C@]5(C)C4CC[C@]3(C)[C@H]1[C@@H]2C (some centres undefined) | > 4 mM (inactive) |
| CCCSc1nnc2[nH]c(=O)cc(N)n12 | > 4 mM (inactive) |
| O=c1[nH]cc(Nc2ccccc2)c(=O)[nH]1 | > 4 mM (inactive) |
| O=C1NC(=O)/C(=C\c2ccco2)S1 | > 4 mM (inactive) |
| NC(=O)C1CCN(S(=O)(=O)c2ccccc2)CC1 | > 4 mM (inactive) |
| Cc1c(/C=N/O)cnn1C | > 4 mM (inactive) |
| O=C(O)Cn1c(=O)sc2ccccc21 | > 4 mM (inactive) |
| COC(=O)[C@@H]1OC(=O)C2OC23[C@@]1(C)CCC1[C@@]2(C)CCC(=O)C(C)(C)C2C[C@@H](OC(C)=O)[C@]13C (some centres undefined) | > 4 mM (inactive) |
| COc1ccc(/C=N/n2cn[nH]c2=S)cc1 | > 4 mM (inactive) |
| Cn1c(=O)c2[nH]cnc2n(C)c1=O | > 4 mM (inactive) |
| CC(=O)OC(C)(C)[C@@H]1Cc2cc3ccc(=O)oc3cc2O1 | > 4 mM (inactive) |
| O=S1(=O)CCC(NC(=S)Nc2ccc(O)cc2)C1 (centres undefined) | > 4 mM (inactive) |
